Reference: patent publication US10568328B2, “Methods and compositions for weed control” (Monsanto Technology LLC, priority 2013, dated 2020)

Test system: Amaranthus palmeri plants (R22 glyphosate resistant biotype)
Assay: OEP80 trigger dsRNA polynucleotides followed by 2X WMAX, injury rating (FIG. 1)
Assay type: in vivo
Details: 8 nmol/plant, 0.5-1.0 percent Silwet L-77 and buffer, 2X WMAX one day later; rated 14 days after WMAX; baseline 40 percent
Method: FIG. 1. Treatment of Amaranthus palmeri with dsRNA trigger polynucleotides targeting OEP80.
The following procedure is used for all assays described in this example. Approximately four-week old Amaranthus palmeri plants (glyphosate-resistant Palmer amaranth, “R-22”) are used in this assay. Plants are treated with 0.5-1.0 percent Silwet L-77 solution freshly made with ddH2O. Two fully expanded leaves per plant (one cotyledon, one true leaf) are treated with the polynucleotide/Silwet L-77 solution. Final concentration for each dsRNA polynucleotide was 25 microM) unless otherwise stated. Twenty microliters of the solution are applied to the top surface of each of the two pre-treated leaves to provide a total of 40 microliters (1-4 nmol polynucleotide) for each plant.
Spray solutions are prepared the same day as spraying. Single oligonucleotide molecules are applied at rates between 0.04 and 0.18 mg/ml in 20 mM potassium phosphate buffer (pH 6.8) are added to spray solutions 15 to 50 minutes before spraying. One-to-two-ml spray solutions were applied using a custom low-dead-volume sprayer (“milli applicator”) at 8-30 gpa (gallons per acre) to one-to-four inch tall plants. Treated plants are place in a greenhouse set for either a 26.7/21.1° C. or 29.4/21.1° C. 14/10 hour temperature and supplemental light schedule. The amount of response relative to unsprayed treatments is collected at various time intervals up to 21 days after treatment.
A common spray nozzle used for all applications made with the track sprayer is the Turbo Teejet air induction nozzle (015) nozzle with air pressure set at a minimum of 20 psi (pounds per square inch or […]). This style nozzle is currently being utilized to lessen shear forces that can damage or otherwise change large macromolecules that can seen with other nozzle styles. The height of the spray nozzle is to be 16-18 inches above top of plant material. Treatments are to be made when plants reach the desired size, height or leaf stage.
Application rates are chosen so as to achieve percent control ratings in the range of 50 percent at the lowest rate to 90 percent control at the highest rate. The rates in this control range provide the best possible efficacy comparisons among formulations, allowing separation of relative performance of test samples. The rate of herbicide used in these studies is typically at the manufacturer's recommended use rate. On occasion lower or higher rates may be necessary depending on test objectives. The rate structure used for a given test will be dependent on the environmental conditions at the time of spray application (time of year), the plant species being treated (highly susceptible or tough to kill) and age (or size) of plants to be treated.
Amaranthus palmeri plants (R22 glyphosate resistant biotype) were treated following the protocol described in Example 3. Trigger dsRNA polynucleotides shown in Table 5 (SEQ ID NO: 1535-1573, plus strand sequence illustrated) are targeting the A. palmeri OEP80 gene coding region (SEQ ID NO: 365). The polynucleotides were topically applied at 8 nmol/plant in a composition comprising 0.5-1.0 percent Silwet L-77 and buffer followed one day later by treatment with 2× WeatherMAX (WMAX). Injury rating of the treated plants was conducted 14 days after the WMAX treatment. The control treatments were buffer alone and 2 rates (4 nmol and 8 nmol) of a trigger polynucleotide (oligo 5.3) targeting the A. palmeri EPSPS coding gene sequence. The average baseline level of injury effect of buffer plus WMAX was set at 40 percent for this experiment. […] Additionally, 4 regions of the target gene sequence were identified in which the polynucleotides in those regions were particularly effective, these regions are between nucleotide positions 369-701, 1016-1168, 1364-1622 and 1683-1792 of SEQ ID NO: 365.

Molecule | Injury rating: enhancement of the effect of WMAX (FIG. 1)
T25452: A. palmeri OEP80 trigger dsRNA polynucleotide, SEQ ID NO: 1542 (GGAGGCATTAATGGCATTGAAAGCTTGCCGGGCGAATTCAGCTTTGACTGTGC; double-stranded RNA trigger, chemistry not given here, further chemistry not given here; listed as Amaranthus palmeri) [Oligo T25452] | able to enhance the effect of WMAX
T25455: A. palmeri OEP80 trigger dsRNA polynucleotide, SEQ ID NO: 1545 (GCGAAGGAGCTAATGTTCTCCCTTCCAAGTTTGTAGAGGATTCATTTC; double-stranded RNA trigger, chemistry not given here, further chemistry not given here; listed as Amaranthus palmeri) [Oligo T25455] | able to enhance the effect of WMAX
T25456: A. palmeri OEP80 trigger dsRNA polynucleotide, SEQ ID NO: 1546 (GTGATGGATATGGGAAAGTGGTCAATATCAGGCGTTTGGATGAAGTGATTGATTC; double-stranded RNA trigger, chemistry not given here, further chemistry not given here; listed as Amaranthus palmeri) [Oligo T25456] | able to enhance the effect of WMAX
T25457: A. palmeri OEP80 trigger dsRNA polynucleotide, SEQ ID NO: 1547 (GATTCTATAAATGGATGGTACATGGAGCGTGGTCTTTTTGGCATGGTTTC; double-stranded RNA trigger, chemistry not given here, further chemistry not given here; listed as Amaranthus palmeri) [Oligo T25457] | able to enhance the effect of WMAX
T25464: A. palmeri OEP80 trigger dsRNA polynucleotide, SEQ ID NO: 1554 (GTTTCTCGGCTGGTGGTGGTATTTCGAGCGGGATAACGAGCGGACCGC; double-stranded RNA trigger, chemistry not given here, further chemistry not given here; listed as Amaranthus palmeri) [Oligo T25464] | able to enhance the effect of WMAX
T25465: A. palmeri OEP80 trigger dsRNA polynucleotide, SEQ ID NO: 1555 (GCTATCAGGTTTAATTGGAAGCTTTGCATATTCTCACAGGAATCTGTTTGGAAAAAATC; double-stranded RNA trigger, chemistry not given here, further chemistry not given here; listed as Amaranthus palmeri) [Oligo T25465] | able to enhance the effect of WMAX
T25466: A. palmeri OEP80 trigger dsRNA polynucleotide, SEQ ID NO: 1556 (GAAAAAATCAAAAAGTAAATGTCTCTCTTGAAAGAGGCCAAATCGACTCTATCTTCC; double-stranded RNA trigger, chemistry not given here, further chemistry not given here; listed as Amaranthus palmeri) [Oligo T25466] | able to enhance the effect of WMAX
T25471: A. palmeri OEP80 trigger dsRNA polynucleotide, SEQ ID NO: 1561 (GACTTACGTTTCAGCATGCTGGTGTCCGTGATGAAAAAGGGAACCCCGTC; double-stranded RNA trigger, chemistry not given here, further chemistry not given here; listed as Amaranthus palmeri) [Oligo T25471] | able to enhance the effect of WMAX
T25473: A. palmeri OEP80 trigger dsRNA polynucleotide, SEQ ID NO: 1563 (GCTGCTTGCCAAAGGCGAGTGTGCCTACACGGGTGACTTAGGATCCTCAATGTTAGTC; double-stranded RNA trigger, chemistry not given here, further chemistry not given here; listed as Amaranthus palmeri) [Oligo T25473] | able to enhance the effect of WMAX
T25474: A. palmeri OEP80 trigger dsRNA polynucleotide, SEQ ID NO: 1564 (GTCTTAAGCATGGAACAAGGTCTTCCTATCTATCCTGAGTGGCTGTGTTTTAATC; double-stranded RNA trigger, chemistry not given here, further chemistry not given here; listed as Amaranthus palmeri) [Oligo T25474] | able to enhance the effect of WMAX
T25475: A. palmeri OEP80 trigger dsRNA polynucleotide, SEQ ID NO: 1565 (GTTTTAATCGAGTCAACGCTCGTGCTAGGTCAGGGGTGGACATTGGTCCAGC; double-stranded RNA trigger, chemistry not given here, further chemistry not given here; listed as Amaranthus palmeri) [Oligo T25475] | able to enhance the effect of WMAX
T25477: A. palmeri OEP80 trigger dsRNA polynucleotide, SEQ ID NO: 1567 (GTTTGCGATCGGTGGTACAAATAGTGTGAGAGGATATGAAGAAGGTGCCGTTGGC; double-stranded RNA trigger, chemistry not given here, further chemistry not given here; listed as Amaranthus palmeri) [Oligo T25477] | able to enhance the effect of WMAX
T25478: A. palmeri OEP80 trigger dsRNA polynucleotide, SEQ ID NO: 1568 (GCTCAGGCCTTTCATACGTAGTGGGCTGTGGAGAAGTTTCCTTCCCTCTGTATGGTC; double-stranded RNA trigger, chemistry not given here, further chemistry not given here; listed as Amaranthus palmeri) [Oligo T25478] | able to enhance the effect of WMAX
T29213: A. palmeri OEP80 trigger dsRNA polynucleotide, SEQ ID NO: 1573 (GGATATGAAGAAGGTGCCGTTGGC; double-stranded RNA trigger, chemistry not given here, further chemistry not given here; listed as Amaranthus palmeri) [Oligo T29213] | able to enhance the effect of WMAX
T25454: A. palmeri OEP80 trigger dsRNA polynucleotide, SEQ ID NO: 1544 (nucleic acid, listed as Amaranthus palmeri, double-stranded RNA trigger, chemistry not given here, further chemistry not given here) GATACTAGGGATGGTATTAGATTGGTCTTTCAGGTAGAACCAAACCAGGAGTTTAGAGGACTGGTGTGC | able to enhance the effect of WMAX
T25472: A. palmeri OEP80 trigger dsRNA polynucleotide, SEQ ID NO: 1562 (nucleic acid, listed as Amaranthus palmeri, double-stranded RNA trigger, chemistry not given here, further chemistry not given here) GTCATAAAAGATTTCTACAACAGCGCTCTTACGGCAAGTGGGAATACTCATGATAATATGC | able to enhance the effect of WMAX
